Assay results published in PubChem BioAssay (NCI).
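Five concentrations, 48 hours, 96-well plates. Here, GI50 denotes the concentration required for 50% inhibition of growth. The concentration for full growth arrest is given as TGI.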

How the values were obtained:
Assay in all cases: NCI tumour cell line growth inhibition, 48 h
OVCAR-3 ovarian = system: OVCAR-3 ovarian
SNB-19 CNS = system: SNB-19 CNS
786-0 renal = system: 786-0 renal
MDA-MB-231 breast = system: MDA-MB-231 breast
HCT-15 colon = system: HCT-15 colon
SR leukemia = system: SR leukemia
HCT-116 colon = system: HCT-116 colon
A549 NSCLC = system: A549 NSCLC
EKVX NSCLC = system: EKVX NSCLC
U251 CNS = system: U251 CNS

## O=C1C(NCCc2ccc(O)c(O)c2)=CC(=O)c2ncccc21
OVCAR-3 ovarian
  TGI: 7.77 µM
SNB-19 CNS
  TGI: 45.8 µM
786-0 renal
  TGI: 43.2 µM
MDA-MB-231 breast
  TGI: 16.1 µM
HCT-15 colon
  TGI: 55.7 µM
SR leukemia
  TGI: > 100 µM
HCT-116 colon
  TGI: 29 µM
A549 NSCLC
  TGI: 35.7 µM
EKVX NSCLC
  TGI: 52 µM
U251 CNS
  TGI: 12.8 µM

## C=CC1ON(Cc2ccccc2)CCc2cc(OC)c(OC)cc21 (configuration not stated)
OVCAR-3 ovarian
  TGI: > 100 µM
SNB-19 CNS
  TGI: > 100 µM
786-0 renal
  TGI: > 100 µM
MDA-MB-231 breast
  TGI: > 100 µM
HCT-15 colon
  TGI: > 100 µM
SR leukemia
  TGI: > 100 µM
HCT-116 colon
  TGI: > 100 µM
A549 NSCLC
  TGI: > 100 µM
EKVX NSCLC
  TGI: > 100 µM
U251 CNS
  TGI: > 100 µM

## Clc1ccc(Cc2nc3ccc(CCN4CCN(c5ccccc5)CC4)cc3[nH]2)cc1
OVCAR-3 ovarian
  TGI: 27 µM
SNB-19 CNS
  TGI: 41.6 µM
786-0 renal
  TGI: 23.1 µM
MDA-MB-231 breast
  TGI: 27.3 µM
HCT-15 colon
  TGI: 39.8 µM
SR leukemia
  TGI: 36 µM
HCT-116 colon
  TGI: 24.6 µM
A549 NSCLC
  TGI: 33 µM
EKVX NSCLC
  TGI: 79.9 µM
U251 CNS
  TGI: 26.5 µM

## COc1ccc2[nH]c(Cl)c(/C=C3/C(=O)Nc4cc(C)c(OC)cc43)c2c1
OVCAR-3 ovarian
  TGI: 6.46 µM
SNB-19 CNS
  TGI: 22.2 µM
786-0 renal
  TGI: 19.8 µM
MDA-MB-231 breast
  TGI: 20.6 µM
HCT-15 colon
  TGI: 12.9 µM
SR leukemia
  TGI: > 100 µM
HCT-116 colon
  TGI: 15.7 µM
A549 NSCLC
  TGI: 92.6 µM
EKVX NSCLC
  TGI: 22.7 µM
U251 CNS
  TGI: 18 µM

## CC(C)=CC(=O)O[C@H]1C(=O)O[C@@H]2C[C@H]3[C@H](C)C(=O)C(O[C@@H]4O[C@H](CO)[C@@H](O)[C@H](O)[C@H]4O)=C[C@]3(C)[C@H]3[C@@H](O)[C@H](O)[C@]4(C(=O)O)OC[C@]32[C@@H]14
OVCAR-3 ovarian
  GI50: 20.3 µM
  TGI: 52.1 µM
SNB-19 CNS
  GI50: 31.3 µM
  TGI: > 100 µM
786-0 renal
  TGI: > 100 µM
MDA-MB-231 breast
  GI50: > 100 µM
  TGI: > 100 µM
HCT-15 colon
  GI50: > 100 µM
  TGI: > 100 µM
SR leukemia
  GI50: 31.2 µM
  TGI: > 100 µM
HCT-116 colon
  GI50: 29.8 µM
  TGI: > 100 µM
A549 NSCLC
  GI50: 55 µM
  TGI: > 100 µM
EKVX NSCLC
  GI50: > 100 µM
  TGI: > 100 µM
U251 CNS
  GI50: 40 µM
  TGI: > 100 µM

## Cc1c(C(=O)N2CCN(c3ccc([N+](=O)[O-])cc3)CC2)[n+](=O)c2cc(Cl)c(Cl)cc2n1[O-]
OVCAR-3 ovarian
  TGI: 43.2 µM
SNB-19 CNS
  TGI: 42.1 µM
786-0 renal
  TGI: 30.8 µM
MDA-MB-231 breast
  TGI: 46.7 µM
HCT-15 colon
  TGI: 36.2 µM
SR leukemia
  TGI: 61.2 µM
HCT-116 colon
  TGI: 40.5 µM
A549 NSCLC
  TGI: 48.5 µM
EKVX NSCLC
  TGI: 41.1 µM
U251 CNS
  TGI: 61.5 µM

## CC(=O)N1CCc2c([nH]c3ccc(Br)cc23)C1c1ccccc1 (configuration not stated)
OVCAR-3 ovarian
  TGI: > 10 µM
SNB-19 CNS
  TGI: > 10 µM
786-0 renal
  TGI: > 10 µM
MDA-MB-231 breast
  TGI: > 10 µM
HCT-15 colon
  TGI: > 10 µM
SR leukemia
  TGI: > 10 µM
HCT-116 colon
  TGI: > 10 µM
A549 NSCLC
  TGI: > 10 µM
EKVX NSCLC
  TGI: > 10 µM
U251 CNS
  TGI: > 10 µM

## CCOC(=O)N1CCN(c2ccc3c(C)cc(C)nc3n2)CC1
OVCAR-3 ovarian
  TGI: > 100 µM
SNB-19 CNS
  TGI: > 100 µM
786-0 renal
  TGI: > 100 µM
MDA-MB-231 breast
  TGI: > 100 µM
HCT-15 colon
  TGI: > 100 µM
SR leukemia
  TGI: > 100 µM
HCT-116 colon
  TGI: > 100 µM
A549 NSCLC
  TGI: > 100 µM
EKVX NSCLC
  TGI: > 100 µM
U251 CNS
  TGI: > 100 µM

## Clc1cc2c(c(CSC3=NCN(CC4CC4)CN3)c1)OCOC2
OVCAR-3 ovarian
  TGI: > 100 µM
SNB-19 CNS
  TGI: > 100 µM
786-0 renal
  TGI: 52.2 µM
MDA-MB-231 breast
  TGI: 48 µM
HCT-15 colon
  TGI: > 100 µM
SR leukemia
  TGI: 42.2 µM
HCT-116 colon
  TGI: 42.8 µM
A549 NSCLC
  TGI: 77.6 µM
EKVX NSCLC
  TGI: 53.4 µM
U251 CNS
  TGI: 53.1 µM

## CN(C)c1ccc(/C=C2\N=C(NN)NC2=O)cc1
OVCAR-3 ovarian
  TGI: > 100 µM
SNB-19 CNS
  TGI: > 100 µM
786-0 renal
  TGI: > 100 µM
MDA-MB-231 breast
  TGI: > 100 µM
HCT-15 colon
  TGI: > 100 µM
SR leukemia
  TGI: > 100 µM
HCT-116 colon
  TGI: > 100 µM
A549 NSCLC
  TGI: > 100 µM
EKVX NSCLC
  TGI: > 100 µM
U251 CNS
  TGI: > 100 µM

## COc1ccc(O[C@H](COCc2ccccc2)C[C@@H]2COC(C)(C)O2)cc1
OVCAR-3 ovarian
  TGI: > 100 µM
SNB-19 CNS
  TGI: > 100 µM
786-0 renal
  TGI: > 100 µM
MDA-MB-231 breast
  TGI: > 100 µM
HCT-15 colon
  TGI: > 100 µM
SR leukemia
  TGI: > 100 µM
HCT-116 colon
  TGI: > 100 µM
A549 NSCLC
  TGI: > 100 µM
EKVX NSCLC
  TGI: > 100 µM
U251 CNS
  TGI: > 100 µM

## Cc1ccc(OCC2OC(n3cnc4nc(Cl)nc(Cl)c43)CC2Oc2ccc(C)cc2)cc1 (configuration not stated)
OVCAR-3 ovarian
  TGI: 18.9 µM
SNB-19 CNS
  TGI: 30.1 µM
786-0 renal
  TGI: 19.9 µM
MDA-MB-231 breast
  TGI: 6.56 µM
HCT-15 colon
  TGI: 6.33 µM
SR leukemia
  TGI: 5.65 µM
HCT-116 colon
  TGI: 17.9 µM
A549 NSCLC
  TGI: > 63.3 µM
EKVX NSCLC
  TGI: 34 µM
U251 CNS
  TGI: 55.5 µM

## ClC(Cl)(Cl)C1=N[C@H]2[C@H](Br)[C@@H]3O[C@@H](c4ccccc4)[C@H](c4ccccc4)O[C@@H]3[C@H]2O1
OVCAR-3 ovarian
  TGI: 31.9 µM
SNB-19 CNS
  TGI: 63.9 µM
786-0 renal
  TGI: 39.6 µM
MDA-MB-231 breast
  TGI: 50.1 µM
HCT-15 colon
  TGI: 67.3 µM
SR leukemia
  TGI: 52.2 µM
HCT-116 colon
  TGI: 39 µM
A549 NSCLC
  TGI: 49.2 µM
EKVX NSCLC
  TGI: 50.3 µM
U251 CNS
  TGI: 31.2 µM

## CCOC(=O)c1c(Br)c(-c2ccc(Br)cc2)c(Br)n1C
OVCAR-3 ovarian
  TGI: 38.7 µM
SNB-19 CNS
  TGI: > 100 µM
786-0 renal
  TGI: 89.7 µM
MDA-MB-231 breast
  TGI: 50.1 µM
HCT-15 colon
  TGI: 73 µM
SR leukemia
  GI50: 10 µM
  TGI: 26.1 µM
HCT-116 colon
  GI50: 14.8 µM
  TGI: 34.4 µM
A549 NSCLC
  TGI: > 100 µM
EKVX NSCLC
  GI50: 20.3 µM
  TGI: 74.2 µM
U251 CNS
  TGI: 55 µM

## COC1=C(N=[N+]=[N-])C(=O)c2ncccc2C1=O
OVCAR-3 ovarian
  TGI: 15.5 µM
SNB-19 CNS
  TGI: 30.9 µM
786-0 renal
  TGI: 16.3 µM
MDA-MB-231 breast
  TGI: 25 µM
HCT-15 colon
  TGI: 20.4 µM
SR leukemia
  TGI: > 100 µM
HCT-116 colon
  TGI: 6.57 µM
A549 NSCLC
  TGI: 32.1 µM
EKVX NSCLC
  TGI: 17.3 µM
U251 CNS
  TGI: 27.7 µM

## Cc1ccc(S(=O)(=O)/N=C(\NN)Nc2ccc(Cl)cc2)cc1
OVCAR-3 ovarian
  TGI: > 100 µM
SNB-19 CNS
  TGI: > 100 µM
786-0 renal
  TGI: > 100 µM
MDA-MB-231 breast
  TGI: > 100 µM
HCT-15 colon
  TGI: > 100 µM
SR leukemia
  TGI: > 100 µM
HCT-116 colon
  TGI: > 100 µM
A549 NSCLC
  TGI: > 100 µM
EKVX NSCLC
  TGI: > 100 µM
U251 CNS
  TGI: > 100 µM
